Results taken from ChEMBL document CHEMBL3351363 (J Med Chem, 2014).

Assays:
[1] = biological target: T1, Muscarinic acetylcholine receptor M1 (Homo sapiens, UniProt P11229); test: Displacement of [3H]NMS from human M1 receptor expressed in CHO cells by microplate scintillation counting based radioligand binding assay; type: cell-based
T1 sequence (P11229 whole entry): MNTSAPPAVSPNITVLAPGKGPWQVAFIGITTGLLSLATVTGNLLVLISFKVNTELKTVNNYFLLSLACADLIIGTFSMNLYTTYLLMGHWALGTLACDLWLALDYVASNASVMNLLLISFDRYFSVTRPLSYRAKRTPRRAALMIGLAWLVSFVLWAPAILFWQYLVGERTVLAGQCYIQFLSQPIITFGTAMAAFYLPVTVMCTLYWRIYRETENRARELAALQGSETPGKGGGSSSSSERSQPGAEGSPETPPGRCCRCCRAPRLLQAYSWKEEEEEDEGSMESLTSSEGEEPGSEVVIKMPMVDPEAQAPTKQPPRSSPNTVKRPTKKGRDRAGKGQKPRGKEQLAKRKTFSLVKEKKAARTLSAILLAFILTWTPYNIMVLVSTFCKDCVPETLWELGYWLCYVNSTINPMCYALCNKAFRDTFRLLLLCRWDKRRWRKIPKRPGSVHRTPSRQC

[2] = biological target: T2, Muscarinic acetylcholine receptor M2 (Homo sapiens, UniProt P08172); test: Displacement of [3H]NMS from human M2 receptor expressed in CHO cells by microplate scintillation counting based radioligand binding assay; type: cell-based
T2 sequence (P08172 whole entry): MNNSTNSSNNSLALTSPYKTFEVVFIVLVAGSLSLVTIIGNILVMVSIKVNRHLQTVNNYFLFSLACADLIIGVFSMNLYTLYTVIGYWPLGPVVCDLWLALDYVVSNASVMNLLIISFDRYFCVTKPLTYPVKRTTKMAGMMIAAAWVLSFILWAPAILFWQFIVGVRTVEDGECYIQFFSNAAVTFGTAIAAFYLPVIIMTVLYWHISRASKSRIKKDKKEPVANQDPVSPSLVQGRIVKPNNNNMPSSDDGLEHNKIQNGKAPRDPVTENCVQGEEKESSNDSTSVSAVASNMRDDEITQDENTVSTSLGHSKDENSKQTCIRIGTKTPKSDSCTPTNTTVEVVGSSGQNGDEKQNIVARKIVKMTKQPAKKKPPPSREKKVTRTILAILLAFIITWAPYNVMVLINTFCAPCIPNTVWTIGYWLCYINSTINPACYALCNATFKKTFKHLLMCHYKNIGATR

[3] = biological target: T1, Muscarinic acetylcholine receptor M1; test: Agonist activity at human M1 receptor expressed in HEK293T cells by BRET based Gq protein engagement assay
[4] = biological target: T3, Muscarinic acetylcholine receptor M1 (Homo sapiens) (UniProt P11229); test: Positive modulatory activity at human M1 receptor expressed in HEK293T cells assessed as effect on carbachol-induced response by BRET based Gq protein engagement assay relative to untreated control; type: cell-based; details: HEK-293T
T3 sequence (whole entry): T1 sequence (P11229 whole entry)

[5] = biological target: T3, Muscarinic acetylcholine receptor M1 (Homo sapiens); test: Positive modulatory activity at human M1 receptor expressed in HEK293T cells assessed as effect on carbachol-induced response by BRET based Gq protein activation assay relative to untreated control; type: cell-based; details: HEK-293T
[6] = biological target: T4, Muscarinic acetylcholine receptor M4 (Homo sapiens) (UniProt P08173); test: Antagonist activity at human M4 receptor expressed in HEK293T cells assessed as inhibition of xanomeline-induced response by BRET based Gq protein engagement assay relative to untreated control; type: cell-based; details: HEK-293T
T4 sequence (whole entry): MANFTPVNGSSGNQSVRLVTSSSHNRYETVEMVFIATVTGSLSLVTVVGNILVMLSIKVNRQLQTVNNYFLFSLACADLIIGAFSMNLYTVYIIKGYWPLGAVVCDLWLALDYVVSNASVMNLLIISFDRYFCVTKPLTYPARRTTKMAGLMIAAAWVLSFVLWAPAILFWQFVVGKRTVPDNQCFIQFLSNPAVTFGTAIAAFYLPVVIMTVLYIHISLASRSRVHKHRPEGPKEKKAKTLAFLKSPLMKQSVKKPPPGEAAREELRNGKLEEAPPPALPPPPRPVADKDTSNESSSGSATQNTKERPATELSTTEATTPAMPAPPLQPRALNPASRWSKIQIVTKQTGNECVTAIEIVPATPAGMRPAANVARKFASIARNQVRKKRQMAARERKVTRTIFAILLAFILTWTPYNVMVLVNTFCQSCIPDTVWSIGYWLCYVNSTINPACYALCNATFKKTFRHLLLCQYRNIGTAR

[7] = biological target: T5, Muscarinic acetylcholine receptor M4 (Homo sapiens, UniProt P08173); test: Antagonist activity at human M4 receptor expressed in HEK293T cells assessed as inhibition of carbachol-induced response by beta-arrestin engagement assay; type: cell-based, HEK-293T
T5 sequence (P08173 whole entry): T4 sequence (whole entry)

[8] = biological target: T4, Muscarinic acetylcholine receptor M4 (Homo sapiens); test: Antagonist activity at human M4 receptor expressed in HEK293T cells assessed as inhibition of xanomeline-induced response by beta-arrestin engagement assay relative to untreated control; type: cell-based; details: HEK-293T
[9] = biological target: T1, Muscarinic acetylcholine receptor M1
[10] = biological target: T1, Muscarinic acetylcholine receptor M1; remark: listed apart in the source

- Ki [1]: 0.316 µM
- Ki [2]: 0.204 µM
- EC50 [3]: 0.0603 µM
- Emax [4]: 101%
- Emax [5]: 79%
- Imax [6]: 78%
- IC50 [7]: 0.178 µM
- Imax [8]: 19%
- EC50 [9]: 0.263 µM
- IC50 [10]: 0.174 µM
SMILES: CCCCC1CCN(CCCN2C(=O)CCc3ccccc32)CC1
